Measured values reported in US9290427B2, “Anti-invasive compounds” (Universiteit Gent, priority 2012, dated 2016).

System: not given
Conditions: not given
Fc1ccc(/C=C/c2cccc(F)c2)cc1 [Compound 98, (E)-3,4′-Difluorostilbene] gave a melting point of 92 to 93 °C. For Fc1ccc(/C=C/c2ccc(F)cc2)cc1 [Compound 90, (E)-4,4′-Difluorostilbene], the melting point was 116 to 117 °C. COc1cccc(/C=C/c2ccc(Cl)cc2)c1 [Compound 99, (E)-4′-Chloro-3-methoxystilbene] gave a melting point of 71 to 72 °C.

System: MCF-7/6 mammary carcinoma cells
Parameters: unit not given here
Conditions: training set compounds 1-34, Indo-Belgian screening program; class = log cmin, lowest concentration with invasion grade I or II; cited from earlier work
In the case of COc1cc(OC)c(C(=O)/C=C/c2ccccc2)c(OC)c1CC=C(C)C [Compound 15, (2E)-3-phenyl-1-(2′,4′,6′-trimethoxy-3′-(3-methylbut-2-enyl)phenyl)propenone], the Actual class is listed as 3 (>100). In the case of COc1cccc(/C=C/C(=O)c2ccc3c(c2)OCO3)c1OC [Compound 26, (2E)-1-Benzo[1,3]dioxol-5-yl-3-(2,3-dimethoxyphenyl)propenone], the Actual class is given as 1 (about 10). For CC1(C)CCc2c(O)c(C(=O)/C=C/c3ccc(Oc4ccccc4)cc3)c3c(c2O1)CCC(C)(C)O3 [Compound 6, (2E)-1-(5-Hydroxy-2,2,8,8-tetramethyl-3,4,9,10-tetrahydro-2H,8H-pyrano[2,3-f]chromen-6-yl)-3-(4-phenoxypheny)propenone], the Actual class is listed as 3 (>100). For COc1cc(OC)c(C(=O)/C=C/c2ccccc2)c(O)c1CC=C(C)C [Compound 11, (2E)-3-phenyl-1-(2′-hydroxy-4′,6′-dimethoxy-3′-(3-methylbut-2-enyl)phenyl)propenone], the Actual class is given as 2 (about 100). For COc1cc(OC)c(C(=O)/C=C/c2ccccc2)cc1CC=C(C)C [Compound 18, (2E)-3-phenyl-1-(2′,4′-dimethoxy-5′-(3-methylbut-2-enyl)phenyl)propenone], the Actual class is listed as 0 (about 1). For COc1ccc(/C=C/C(=O)c2cc3c(cc2O)OC(C)(C)CC3)cc1OC [Compound 23, (2E)-3-(3,4-Dimethoxyphenyl)-1-(7-hydroxy-2,2-dimethylchroman-6-yl)propenone], the Actual class is given as 2 (about 100). For COc1ccc(/C=C/C(=O)c2c(O)c3c(c4c2OC(C)(C)CC4)OC(C)(C)CC3)cc1OCc1ccccc1 [Compound 7, (2E)-3-(3-Benzyloxy-4-methoxy-phenyl)-1-(5-hydroxy-2,2,8,8-tetramethyl-3,4,9,10-tetrahydro-2H,8H-pyrano[2,3-f]chromen-6-yl)propenone], the Actual class is listed as 3 (>100). In the case of COc1cc(/C=C/C(=O)c2ccc(OCc3ccccc3)c(OCc3ccccc3)c2)ccc1OCc1ccccc1 [Compound 13, (2E)-3-(4-Benzyloxy-3-methoxyphenyl)-1-(3,4-bis-benzyloxyphenyl)propenone], the Actual class is listed as 1 (about 10). For COc1ccc(/C=C/C(=O)c2ccc3c(c2)OCO3)c(OC)c1 [Compound 22, (2E)-1-Benzo[1,3]dioxol-5-yl-3-(2,4-dimethoxyphenyl)propenone], the Actual class is listed as 2 (about 100). In the case of COc1cc(OC)c(C(=O)/C=C/c2ccccc2)c(O)c1OC [Compound 17, (2E)-3-phenyl-1-(2′-hydroxy-3′,4′,6′-trimethoxyphenyl)propenone], the Actual class is given as 2 (about 100). In the case of COc1ccc(/C=C/C(=O)c2cc(C(c3ccccc3)c3ccccc3)c(OC)cc2O)cc1 [Compound 1, (2E)-1-(5-Benzhydryl-2-hydroxy-4-methoxyphenyl)-3-(4-methoxyphenyl)propenone], the Actual class is given as 3 (>100). In the case of COc1cc(OC)c(C(=O)/C=C/c2ccc(C(C)C)cc2)cc1CC=C(C)C [Compound 14, (2E)-3-(4-(1-methylethyl)phenyl)-1-(2′,4′-dimethoxy-5′-(3-methylbut-2-enyl)phenyl)propenone], the Actual class is listed as 1 (about 10). For COc1ccc(C(=O)/C=C/c2ccc(C(C)C)cc2)cc1OC [Compound 31, (2E)-3-(4-(1-methylethyl)phenyl)-1-(3′,4′-dimethoxyphenyl)propenone], the Actual class is given as 3 (>100). In the case of COc1ccc(C(=O)/C=C/c2cccc(Oc3ccccc3)c2)cc1OC [Compound 32, (2E)-3-(3-phenoxyphenyl)-1-(3′,4′-dimethoxyphenyl)propenone], the Actual class is listed as 3 (>100). For COc1cc(OC)c(C(=O)/C=C/c2ccccc2)c2c1CC(O)C(C)(C)O2 (centres unmarked) [Compound 24, (2E)-1-(3-Hydroxy-5,7-dimethoxy-2,2-dimethylchroman-8-yl)-3-phenylpropenone], the Actual class is given as 0 (about 1). In the case of COc1ccc(/C=C/C(=O)c2cc3c(cc2OC)OC(C)(C)C(O)C3)c(OC)c1 (centres unmarked) [Compound 29, (2E)-3-(2,4-Dimethoxyphenyl)-1-(3-hydroxy-7-methoxy-2,2-dimethylchroman-6-yl)-propenone], the Actual class is given as 3 (>100). For COc1cc(OC)c(C(=O)/C=C/c2ccc3c(c2CCc2ccccc2)CCC(C)(C)O3)cc1CC=C(C)C [Compound 5, (2E)-1-[2,4-Dimethoxy-5-(3-methylbut-2-enyl)phenyl]-3-(2,2-dimethyl-5-phenethylchroman-6-yl)propenone], the Actual class is listed as 1 (about 10). In the case of COc1cc(OC)c(C(=O)/C=C/c2cccc(Oc3ccccc3)c2)cc1CC=C(C)C [Compound 34, (2E)-3-(3-phenoxyphenyl)-1-(2′,4′-dimethoxy-5′-(3-methylbut-2-enyl)phenyl)propenone], the Actual class is listed as 3 (>100). For COc1ccc(/C=C/C(=O)c2cc(CC=C(C)C)c(OC)cc2OC)c(OC)c1 [Compound 33, (2E)-3-(2,4-dimethoxyphenyl)-1-(2′,4′-dimethoxy-5′-(3-methylbut-2-enyl)phenyl)propenone], the Actual class is given as 3 (>100). For COc1cc(O)c(C(=O)/C=C/c2ccccc2)c(OC)c1OC [Compound 21, (2E)-3-phenyl-1-(6′-hydroxy-2′,3′,4′-trimethoxyphenyl)propenone], the Actual class is given as 0 (about 1). For COc1ccc(/C=C/C(=O)c2cc3c(cc2O)OC(C)(C)C=C3)c(OC)c1 [Compound 30, (2E)-3-(2,4-Dimethoxyphenyl)-1-(7-hydroxy-2,2-dimethyl-2H-chromen-6-yl)propenone], the Actual class is listed as 3 (>100). For COc1cc(O)c(CC=C(C)C)c(O)c1C(=O)/C=C/c1ccc(O)cc1 [Compound 27, (2E)-3-(4-hydroxyphenyl)-1-(2′,4′-dihydroxy-6′-methoxy-3′-(3-methylbut-2-enyl)phenyl)propenone], the Actual class is listed as 0 (about 1). For COc1ccc(C(=O)/C=C/c2ccc([N+](=O)[O-])cc2)cc1OC [Compound 20, (2E)-3-(4-nitrophenyl)-1-(3′,4′-dimethoxyphenyl)propenone], the Actual class is given as 3 (>100). In the case of CC(C)c1ccc(/C=C/C(=O)c2c(O)c3c(c4c2OC(C)(C)CC4)OC(C)(C)CC3)cc1 [Compound 8, (2E)-1-(5-Hydroxy-2,2,8,8-tetramethyl-3,4,9,10-tetrahydro-2H,8H-pyrano[2,3-f]chromen-6-yl)-3-(4-isopropylphenyl)propenone], the Actual class is listed as 3 (>100). In the case of C=CCOc1c(OC)cc(O)c(C(=O)/C=C/c2ccc(O)cc2)c1OC [Compound 28, (2E)-3-(4-hydroxyphenyl)-1-(6′-hydroxy-2′,4′-dimethoxy-3′-(2-propenyloxy)phenyl)propenone], the Actual class is listed as 1 (about 10). In the case of CCOc1ccc(/C=C/C(=O)c2cc(C(c3ccccc3)c3ccccc3)c(OC)cc2O)cc1 [Compound 2, (2E)-1-(5-Benzhydryl-2-hydroxy-4-methoxyphenyl)-3-(4-ethoxyphenyl)propenone], the Actual class is given as 3 (>100). For COc1cc(OC)c(C(=O)/C=C/c2ccc([N+](=O)[O-])cc2)cc1CC=C(C)C [Compound 10, (2E)-3-(4-nitrophenyl)-1-(2′,4′-dimethoxy-5′-(3-methylbut-2-enyl)phenyl)propenone], the Actual class is listed as 3 (>100). In the case of COc1ccc(/C=C/C(=O)c2cc3c(cc2O)OC(C)(C)C(O)C3)c(OC)c1 (centres unmarked) [Compound 12, (2E)-1-(3,7-Dihydroxy-2,2-dimethylchroman-6-yl)-3-(2,4-dimethoxy-phenyl)propenone], the Actual class is given as 1 (about 10). For COc1ccc(C(=O)/C=C/c2ccc(C)cc2)cc1OC [Compound 16, (2E)-3-(4-methylphenyl)-1-(3′,4′-dimethoxyphenyl)propenone], the Actual class is listed as 2 (about 100).
